# Source: US9072741B2, “Methods of treating liver fibrosis and pre-cirrhosis with epidermal growth factor receptor inhibitors” (The General Hospital Corporation, priority 2009, dated 2015)
# Tested on: DEN-induced liver fibrosis/pre-cirrhosis
# Experiment: DEN-treated rats, treatment begun at 8, 12 or 15 weeks: Ishak score
# Assay type: in vivo, male Wistar rats
# Procedure: FIG. 8B is a bar graph depicting Ishak scores in male Wistar rats receiving weekly intraperitoneal injections of 50 mg/kg DEN for 18 weeks and vehicle only (n=8) or 2 mg/kg gefitnib (n=8) beginning at either 8, 12, or 15 weeks. *, significant.
# Male Wistar rats received weekly intraperitoneal injections of DEN (50 mg/kg) for 16 weeks. Rats received vehicle control or gefitinib (2 mg/kg) daily beginning at either 8, 12, or 15 weeks and lasting until 18 weeks. To assess the extent of liver disease at the start of each treatment, a subgroup of rats were sacrificed after a two-week washout of DEN and the liver was harvested and processed for analysis. Masson's trichrome stains of liver sections from each animal were analyzed by a blinded pathologist. After 8 weeks and 12 weeks of DEN administration, no macroscopic findings were observed on the surface of the liver (FIG. 8A). […] After 15 weeks of DEN administration, the rats had progressed to late stage cirrhosis which could be observed macroscopically on the surface of the liver (FIG. 8A) as well as microscopically. Rats receiving vehicle or gefitinib were sacrificed at 18 weeks after a two-week washout of DEN. The liver was harvested and processed for analysis. Masson's trichrome stains of liver sections from each animal were scored by a blinded pathologist by the method of Ishak. […]
compound,measurement,setting,value
"COc1cc2ncnc(Nc3ccc(F)c(Cl)c3)c2cc1OCCCN1CCOCC1 [gefitinib, 4-Quinazolinamine, N-(3-chloro-4-fluorophenyl)-7-methoxy-6-(3-(4-morpholinyl)propoxy)]",progression of liver fibrosis/pre-cirrhosis (Ishak),2 mg/kg daily beginning at 8 weeks until 18 weeks,inhibited the progression of liver fibrosis/pre-cirrhosis
same,progression of liver fibrosis/pre-cirrhosis (Ishak),2 mg/kg daily beginning at 12 weeks until 18 weeks,inhibited the progression of liver fibrosis/pre-cirrhosis
